# Results published in ChEMBL document CHEMBL1201862, “PubChem BioAssay data set” (2004).
#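 Each compound was tested at five concentrations against cells in 96-well plates for 48 hours. Here, GI50 denotes the concentration required for 50% inhibition of growth.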 Active and inactive are the calls of the source. Rule as the data show it: active = GI50 up to about 1.1 µM and inactive = higher.
# Key:
# Assay in all cases: growth of human tumour cells (NCI), 48 h
# 786-0 = system: 786-0
# A498 = system: A498
# A549 = system: A549
# ACHN = system: ACHN
# BT-549 = system: BT-549
# CAKI-1 = system: CAKI-1
# CCRF-CEM = system: CCRF-CEM
# COLO 205 = system: COLO 205
# DU-145 = system: DU-145
# HCC 2998 = system: HCC 2998
# HCT-116 = system: HCT-116
# HCT-15 = system: HCT-15
# HL-60 = system: HL-60
# HOP-62 = system: HOP-62
# HOP-92 = system: HOP-92
# HT-29 = system: HT-29
# Hs-578T = system: Hs-578T
# IGROV-1 = system: IGROV-1
# K562 = system: K562
# KM12 = system: KM12
# LOX IMVI = system: LOX IMVI
# M14 = system: M14
# MCF7 = system: MCF7
# MDA-MB-231 = system: MDA-MB-231
# MDA-MB-435 = system: MDA-MB-435
# MDA-N = system: MDA-N
# MOLT-4 = system: MOLT-4
# Malme-3M = system: Malme-3M
# NCI-H226 = system: NCI-H226
# NCI-H23 = system: NCI-H23
# NCI-H460 = system: NCI-H460
# NCI-H522 = system: NCI-H522
# NCI/ADR-RES = system: NCI/ADR-RES
# OVCAR-3 = system: OVCAR-3
# OVCAR-4 = system: OVCAR-4
# OVCAR-5 = system: OVCAR-5
# OVCAR-8 = system: OVCAR-8
# PC-3 = system: PC-3
# SF-268 = system: SF-268
# SF-295 = system: SF-295
# SF-539 = system: SF-539
# SK-MEL-28 = system: SK-MEL-28
# SK-MEL-2 = system: SK-MEL-2
# SK-MEL-5 = system: SK-MEL-5
# SN12C = system: SN12C
# SNB-19 = system: SNB-19
# SNB-75 = system: SNB-75
# SW-620 = system: SW-620
# T47D = system: T47D
# U-251 = system: U-251
# UACC-257 = system: UACC-257
# UACC-62 = system: UACC-62
# UO-31 = system: UO-31
structure (smiles),measurement,setting,value
COc1ccc(P2(=S)Oc3ccccc3-c3ccccc3O2)cc1,GI50,786-0,531 nM (active)
same,GI50,A498,306 nM (active)
same,GI50,A549,449 nM (active)
same,GI50,ACHN,728 nM (active)
same,GI50,BT-549,> 100000 nM (inactive)
same,GI50,CAKI-1,271 nM (active)
same,GI50,CCRF-CEM,356 nM (active)
same,GI50,COLO 205,343 nM (active)
same,GI50,DU-145,542 nM (active)
same,GI50,HCC 2998,443 nM (active)
same,GI50,HCT-116,524 nM (active)
same,GI50,HCT-15,480 nM
same,GI50,HL-60,284 nM (active)
same,GI50,HOP-62,440 nM (active)
same,GI50,HOP-92,4180 nM (inactive)
same,GI50,HT-29,274 nM (active)
same,GI50,Hs-578T,466 nM (active)
same,GI50,IGROV-1,394 nM (active)
same,GI50,K562,196 nM (active)
same,GI50,KM12,499 nM (active)
same,GI50,LOX IMVI,661 nM (active)
same,GI50,M14,574 nM (active)
same,GI50,MCF7,377 nM (active)
same,GI50,MDA-MB-231,439 nM (active)
same,GI50,MDA-MB-435,144 nM (active)
same,GI50,MDA-N,147 nM (active)
same,GI50,MOLT-4,437 nM (active)
same,GI50,Malme-3M,438 nM (active)
same,GI50,NCI-H226,7100 nM (inactive)
same,GI50,NCI-H23,579 nM (active)
same,GI50,NCI-H460,350 nM (active)
same,GI50,NCI-H522,193 nM (active)
same,GI50,NCI/ADR-RES,902 nM (active)
same,GI50,OVCAR-3,226 nM (active)
same,GI50,OVCAR-4,4250 nM (inactive)
same,GI50,OVCAR-5,> 100000 nM (inactive)
same,GI50,OVCAR-8,802 nM (active)
same,GI50,PC-3,193 nM (active)
same,GI50,SF-268,1500 nM (inactive)
same,GI50,SF-295,296 nM (active)
same,GI50,SF-539,266 nM (active)
same,GI50,SK-MEL-28,> 67100 nM (inactive)
same,GI50,SK-MEL-2,596 nM (active)
same,GI50,SK-MEL-5,365 nM (active)
same,GI50,SN12C,370 nM (active)
same,GI50,SNB-19,521 nM (active)
same,GI50,SNB-75,337 nM (active)
same,GI50,SW-620,423 nM (active)
same,GI50,T47D,36100 nM (inactive)
same,GI50,U-251,429 nM (active)
same,GI50,UACC-257,1350 nM (inactive)
same,GI50,UACC-62,733 nM (active)
same,GI50,UO-31,518 nM (active)
